# Paper PMC10301570 (Molecules, 2023)
# Read-outs that look alike come from different tables or passages of the source.
# Key:
# [1] = In-vivo pharmacokinetic study in rats after oral administration of EECQ extract; details: serum, oral 400 mg/Kg EECQ, mean ± SD, n = 6; for AUC(0-inf): male, SD, po; for AUC(0-inf) / AUC(0-t) / Cmax / Tmax / half-life: rat
# Protocol: Liquid-liquid extraction was employed for processing samples of quercetin and t-res in rat serum. CS/QC samples were prepared using 10 μL of sample and 90 μL of control serum or 100 μL serum (in vivo) samples were treated with 100 μL of 1 mg/mL β-glucuronidase enzyme in 100 mM ammonium acetate buffer (pH 5) and incubated for 2 h at 37 °C. The reaction mixtures were precipitated with 200 μL of 0.1% FA in methanol-containing IS (FFA). Samples were vortexed for 5 min at 2000 rpm, and then ethyl acetate was added, the sample was vortexed and centrifuged at 10,000 rpm for 10 min. The organic layer was then collected and dried at 37 °C using a TurboVap and nitrogen stream. The dried residues were reconstituted with mobile phase and injected into LC-MS/MS for analysis.
# The pharmacokinetic study of quercetin and t-res was performed by an oral administration of EECQ extract (400 mg/kg) in male SD rats (n = 6). The EECQ oral dose was selected based on our previous publication. […] Blood samples were collected from the retro-orbital plexus of rats at predetermined time points 0.25, 0.5, 1, 2, 4, 8, 12, 24, and 48 h after oral administration. Serum was obtained by centrifuging the blood and samples were stored at −80 °C until analysis. Serum samples were processed using the LLE extraction mentioned in Section 4.6 and analyzed using the validated LC-MS/MS method. The non-compartment model was used to calculate the pharmacokinetic (PK) parameters for quercetin and t-res using WinNonlin 6.3 software (Pharsight Corporation, Saint Louis, MO, USA). The PK parameters were estimated, including Cmax, maximum plasma concentration; t1/2, half-life; Tmax, time to reach Cmax; CL/F, clearance and Vd/F, apparent volume of distribution. AUC0–t (area under the concentration curve from zero time point to the last time point) was determined with the trapezoidal rule up to the last measured plasma concentration, Clast. AUC0–∞ (AUC curve from zero time point to infinity) was determined by adding AUC0–t and Clast/Ke.
# [2] = Stability in simulated gastric fluid (SGF, pH 1.2); type: in vitro ADME; details: 100 μg/mL, SGF pH 1.2, 37 °C, 0–60 min
# Protocol: (§1) The stability of quercetin and t-res was tested at 100 μg/mL in simulated gastric (SGF, pH 1.2) and intestinal (SIF, pH 6.8) fluids (n = 3). The manufacturer’s protocol was followed to prepare biorelevant media with enzymes. Quercetin and t-res were exposed to SGF and SIF buffers with and without enzymes and incubated in a shaking water bath at 37 °C. 100 μL samples were collected at specific intervals (0–60 min for SGF and 0–180 min for SIF). At a concentration of 100 µg/mL samples were extracted using ACN containing I.S (1:2, v/v), vortexed for 5 min, and then centrifuged at 10,000 rpm for 5 min [52]. The supernatant of the samples was utilized for LC-MS/MS analysis. The % remaining of quercetin and t-res was calculated to determine the stability using Equation (1). (1) % Drug remaining=Concentration of drug at time t/Concentration of drug at time 0×100
# [3] = Stability in simulated intestinal fluid (SIF, pH 6.8); type: in vitro ADME; details: 100 μg/mL, SIF pH 6.8, 37 °C, 0–180 min
# Protocol: as §1
# [4] = Plasma stability; type: in vitro ADME; details: rat, 37 °C
# Protocol: The preincubation of rat plasma was done for 5 min at 37 °C. After pre-incubation, quercetin and t-res were added to plasma at a concentration of 100 µg/mL, and reaction tubes were incubated for 3 h in a shaking water bath at 37 °C. Aliquots were collected at predetermined timepoints of 0, 5, 15, 30, 45, 60, 90, 120, and 180 min. Plasma samples were processed immediately using the extraction method mentioned in Section 4.6. The % remaining of the drug at various time intervals relative to the initial time point (time 0) was used to calculate the plasma stability.
# [5] = Stability in rat serum under storage conditions (autosampler, benchtop, long-term, freeze-thaw); type: in vitro ADME; details: for Autosampler stability, accuracy / Autosampler stability, measured conc. / Benchtop stability, accuracy / Benchtop stability, measured conc. / Freeze-thaw stability, accuracy / Freeze-thaw stability, measured conc. / Long-term stability, accuracy / Long-term stability, measured conc.: rat serum, n = 6; for Autosampler stability, accuracy / Autosampler stability, measured conc.: 4 ± 2 °C, 24 h; for Benchtop stability, accuracy / Benchtop stability, measured conc.: 24 ± 4 °C, 8 h; for Freeze-thaw stability, accuracy / Freeze-thaw stability, measured conc. / Long-term stability, accuracy / Long-term stability, measured conc.: −70 ± 10 °C; for Freeze-thaw stability, accuracy / Freeze-thaw stability, measured conc.: 3 cycles; for Long-term stability, accuracy / Long-term stability, measured conc.: 30 days
# Protocol: Stability studies were performed using three different QC levels including LQC, MQC, and HQC with six replicates. The extracted serum samples were analyzed using different storage conditions including autosampler (4 ± 2 °C for 24 h), bench top stability (24 ± 4 °C for 8 h), and long-term stability (−70 ± 10 °C for 30 days). Freeze-thaw stability was evaluated after subjecting the samples to three cycles of freezing (−70 ± 10 °C for 12 h) and thawing. Stability samples were quantified against fresh calibration and QC samples. The accuracy and precision of stability samples should meet the acceptance criterion of ±15%.
# [6] = parameters: method as in Dinesh Kumar V et al. (2014) [48]; details: rat plasma, oral, 25 mg/kg, ref Dinesh Kumar V et al. (2014) [48], cited from earlier work
# [7] = Metabolic stability in rat liver microsomes (RLM); details: RLM 0.5 mg/mL, 100 µg/mL, 1 mM NADPH, up to 60 min
# Protocol: (§2) The 0.8 mL reaction mixture was prepared using RLM at 0.5 mg/mL, 40 mM MgCl2, in 50 mM Tris-HCl buffer (pH 7.4). 100 µg/mL of quercetin and t-res was added to the reaction mixture and preincubated in a shaking water bath at 37 °C and 1 mM NADPH was added to the reaction milieu to initiate the reactions. Samples were collected at predetermined time points up to 60 min and processed for LC-MS/MS analysis [54].
# [8] = rat, microsomes, 1 h
# Protocol: as §2
# [9] = parameters: method as in Meng-xiang Su et al. (2011) [47]; details: rat plasma, oral, 0.6 mg/kg; ref Meng-xiang Su et al. (2011) [47]; cited from earlier work
# [10] = nominal conc. 203 ng/mL (204 for trans-resveratrol)
SMILES,AUC(0-inf) ([1]; 400 mg/kg) [ng·h/mL],AUC(0-t) ([1]; male SD rats) [ng·h/mL],Cmax ([1]; male SD rats) [ng/mL],Tmax ([1]; male SD rats) [h],half-life ([1]; male SD rats) [h],"remaining at 3 h, 100 µg/mL [4] [%]","Autosampler stability, accuracy ([5]; nominal conc. 30 ng/mL) [%]","Autosampler stability, measured conc. ([5]; nominal conc. 30 ng/mL) [ng/mL]","Autosampler stability, accuracy [5, 10] [%]","Autosampler stability, measured conc. [5, 10] [ng/mL]","Autosampler stability, accuracy ([5]; nominal conc. 375 ng/mL) [%]","Autosampler stability, measured conc. ([5]; nominal conc. 375 ng/mL) [ng/mL]","Benchtop stability, accuracy ([5]; nominal conc. 30 ng/mL) [%]","Benchtop stability, measured conc. ([5]; nominal conc. 30 ng/mL) [ng/mL]","Benchtop stability, accuracy [5, 10] [%]","Benchtop stability, measured conc. [5, 10] [ng/mL]","Benchtop stability, accuracy ([5]; nominal conc. 375 ng/mL) [%]","Benchtop stability, measured conc. ([5]; nominal conc. 375 ng/mL) [ng/mL]","Freeze-thaw stability, accuracy ([5]; nominal conc. 30 ng/mL) [%]","Freeze-thaw stability, accuracy [5, 10] [%]",also measured
O=c1c(O)c(-c2ccc(O)c(O)c2)oc2cc(O)cc(O)c12 [Quercetin],471 ± 51.5,447 ± 47,57.6 ± 14.3,1.17 ± 0.41,4.91 ± 0.69,83.4,92.56,27.77 ± 1.50,89.32,181.31 ± 8.65,99.44,372.92 ± 2.21,90.29,27.09 ± 1.67,90.96,184.64 ± 7.16,98.96,371.12 ± 2.43,98.12,93.68,"AUC0–∞ ([1]; male SD rats, 400 mg/kg): 474.23 ± 51.49 ng·h/mL; Stability in SGF [2]: Moderate instability; Stability in SIF [3]: stable; Stability in rat serum at variable storage conditions ([5]; autosampler, benchtop, freeze-thaw, long-term): stable; Freeze-thaw stability, measured conc. ([5]; nominal conc. 30 ng/mL): 29.44 ± 2.73 ng/mL; Freeze-thaw stability, measured conc. [5, 10]: 190.17 ± 8.97 ng/mL; Freeze-thaw stability, accuracy ([5]; nominal conc. 375 ng/mL): 98.63%; Freeze-thaw stability, measured conc. ([5]; nominal conc. 375 ng/mL): 369.86 ± 4.43 ng/mL; Long-term stability, accuracy ([5]; nominal conc. 30 ng/mL): 100.22%; Long-term stability, measured conc. ([5]; nominal conc. 30 ng/mL): 30.07 ± 2.06 ng/mL; Long-term stability, accuracy [5, 10]: 98.38%; Long-term stability, measured conc. [5, 10]: 199.71 ± 8.70 ng/mL; Long-term stability, accuracy ([5]; nominal conc. 375 ng/mL): 99.48%; Long-term stability, measured conc. ([5]; nominal conc. 375 ng/mL): 373.05 ± 10.65 ng/mL; AUC(0–t) [6]: 3283.75 ng·h/mL; Tmax [6]: 4.00; plasma half-life [6]: 4.96 h; Cmax ([6]; in ng/mL): 369.20; % remaining in RLM [7]: 53.78"
"Oc1ccc(/C=C/c2cc(O)cc(O)c2)cc1 [trans-Resveratrol, trans-resveratrol]",157 ± 21.1,145 ± 20.8,56.4 ± 13.1,0.58 ± 0.2,1.51 ± 0.4,84.4,94.53,28.36 ± 2.19,93.73,190.28 ± 13.20,99.51,373.15 ± 5.84,95.08,28.52 ± 3.05,93.36,189.53 ± 8.81,98.17,368.13 ± 12.29,91.32,93.32,"Freeze-thaw stability, measured conc. [5, 10]: 189.43 ± 17.82 ng/mL; Freeze-thaw stability, accuracy ([5]; nominal conc. 375 ng/mL): 98.11%; Freeze-thaw stability, measured conc. ([5]; nominal conc. 375 ng/mL): 367.92 ± 11.94 ng/mL; Long-term stability, accuracy ([5]; nominal conc. 30 ng/mL): 101.68%; Long-term stability, measured conc. ([5]; nominal conc. 30 ng/mL): 30.50 ± 2.53 ng/mL; Long-term stability, accuracy [5, 10]: 93.14%; Long-term stability, measured conc. [5, 10]: 189.08 ± 14.18 ng/mL; Long-term stability, accuracy ([5]; nominal conc. 375 ng/mL): 97.67%; Long-term stability, measured conc. ([5]; nominal conc. 375 ng/mL): 366.25 ± 11.38 ng/mL; Phase I metabolism in RLM [8]: no phase I metabolism was observed; Phase I metabolism in RLM ([8]; 100 µg/mL, pH 7.4): no phase-1 metabolism observed; AUC(0–t) [9]: 2835 ± 1655 ng·min/mL; Cmax [9]: 23 ± 8 ng/mL; half-life [9]: 0.6 ± 0.1 h"
